Measured values reported in publication PMC13210772, “Dual FLT3/MAPK14 Proteolysis-Targeting Chimera (PROTAC) Induces Potent Acute Myeloid Leukemia Cell Death” (Pharmaceuticals, 2026).

Assays:
Assay in all cases: NanoBRET CELLinib128
Format in all cases: binding
CDK20-CCNH = biological target: T1, CDK20-CCNH (Homo sapiens, UniProt Q8IZL9); settings: 100% no effect, 0% complete tracer displacement, read-out: Tracer bound
T1 construct: Full-length kinase ORF (Promega, Madison, WI, USA) cloned in frame with a NanoLuc-vector was transfected into HEK293T cells; host or cells: HEK293T
Experimental: (§1) To get an impression about the binding strength of the PROTAC MA191 and the reference inhibitor MA68 to other kinases besides FLT3-ITD the binding on a kinase panel of further 128 representative protein kinases at 1 μM concentration was tested using the NanoBRET^TM cellular target engagement assay (CELLinib128 assay, CELLinib GmbH, Frankfurt, Germany). […] In none of the 128 kinases MA191 was able to displace the tracer (inhibitor) used by more than 50%, Table S1, Supplementary Information).
(§2) The CELLinib128 assay was performed by CELLinib GmbH, Frankfurt (Germany) as described previously. In brief: Full-length kinase ORF (Promega, Madison, WI, USA) cloned in frame with a NanoLuc-vector was transfected into HEK293T cells in Opti-MEM without phenol red (Life Technologies, Carlsbad, CA, USA) at a density of 2 × 10^5 cells/mL using FuGENE HD (Promega, E2312) and proteins were allowed to express for 20 h. For CDKs, where indicated below, an excess of an activator without an NLuc-fusion was cotransfected. […] The system was allowed to equilibrate at 37 °C for 2 h and 5% CO2 prior to BRET measurements. For PKCs, a chemical activator PMA was added in a final concentration of 1 µM was added together with test compounds and tracers (Promega, V1171). To measure BRET, NanoBRET^TM NanoGlo substrate + extracellular NanoLuc inhibitor (Promega, N2160) were added as per the manufacturer’s protocol, and filtered luminescence was measured (450 nm BP filter (donor) and 610 nm LP filter (acceptor)). For the 1-shot test compounds, data were normalized to the tracer control and the background control or control compound plateau and an average and SD were calculated. […] For the control compounds competitive displacement data were normalized to the tracer Ctrl and the background Ctrl and then plotted and fitted using GraphPad Prism 10 software using a normalized 3-parameter curve fit with the following equation: Y = 100/(1 + 10^X−LogIC50).

CDK3-CCNE1 = biological target: T2, CDK3-CCNE1 (Homo sapiens, UniProt Q00526); settings: 1 µM; 100% no effect, 0% complete tracer displacement
T2 construct: Full-length kinase ORF (Promega, Madison, WI, USA) cloned in frame with a NanoLuc-vector was transfected into HEK293T cells; host or cells: HEK293T
Experimental: as §1, §2

CDK4-CCND3 = biological target: T3, CDK4-CCND3 (Homo sapiens, UniProt P11802); settings: 100% no effect, 0% complete tracer displacement, read-out: Tracer bound
T3 construct: Full-length kinase ORF (Promega, Madison, WI, USA) cloned in frame with a NanoLuc-vector was transfected into HEK293T cells; host or cells: HEK293T
Experimental: as §1, §2

CDK5-CDK5R2 = biological target: T4, CDK5-CDK5R2 (Homo sapiens, UniProt Q00535); settings: 100% no effect, 0% complete tracer displacement, read-out: Tracer bound
T4 construct: Full-length kinase ORF (Promega, Madison, WI, USA) cloned in frame with a NanoLuc-vector was transfected into HEK293T cells; host or cells: HEK293T
Experimental: as §1, §2

CHEK2 = biological target: T5, CHEK2 (Homo sapiens, UniProt O96017); settings: 100% no effect, 0% complete tracer displacement, read-out: Tracer bound
T5 construct: Full-length kinase ORF (Promega, Madison, WI, USA) cloned in frame with a NanoLuc-vector was transfected into HEK293T cells; host or cells: HEK293T
Experimental: as §1, §2

DCLK3 = biological target: T6, DCLK3 (Homo sapiens, UniProt Q9C098); settings: 100% no effect, 0% complete tracer displacement, read-out: Tracer bound
T6 construct: Full-length kinase ORF (Promega, Madison, WI, USA) cloned in frame with a NanoLuc-vector was transfected into HEK293T cells; host or cells: HEK293T
Experimental: as §1, §2

EPHA6 = biological target: T7, EPHA6 (Homo sapiens, UniProt Q9UF33); settings: 100% no effect, 0% complete tracer displacement, read-out: Tracer bound
T7 construct: Full-length kinase ORF (Promega, Madison, WI, USA) cloned in frame with a NanoLuc-vector was transfected into HEK293T cells; host or cells: HEK293T
Experimental: as §1, §2

IRAK4 = biological target: T8, IRAK4 (Homo sapiens, UniProt Q9NWZ3); settings: 1 µM; 100% no effect, 0% complete tracer displacement
T8 construct: Full-length kinase ORF (Promega, Madison, WI, USA) cloned in frame with a NanoLuc-vector was transfected into HEK293T cells; host or cells: HEK293T
Experimental: as §1, §2

JAK2 = biological target: T9, JAK2 (Homo sapiens, UniProt O60674); settings: 1 µM; 100% no effect, 0% complete tracer displacement
T9 construct: Full-length kinase ORF (Promega, Madison, WI, USA) cloned in frame with a NanoLuc-vector was transfected into HEK293T cells; host or cells: HEK293T
Experimental: as §1, §2

JAK3 = biological target: T10, JAK3 (Homo sapiens, UniProt P52333); settings: 100% no effect, 0% complete tracer displacement, read-out: Tracer bound
T10 construct: Full-length kinase ORF (Promega, Madison, WI, USA) cloned in frame with a NanoLuc-vector was transfected into HEK293T cells; host or cells: HEK293T
Experimental: as §1, §2

LIMK2 = biological target: T11, LIMK2 (Homo sapiens, UniProt P53671); settings: 100% no effect, 0% complete tracer displacement, read-out: Tracer bound
T11 construct: Full-length kinase ORF (Promega, Madison, WI, USA) cloned in frame with a NanoLuc-vector was transfected into HEK293T cells; host or cells: HEK293T
Experimental: as §1, §2

MAP3K11 = biological target: T12, MAP3K11 (Homo sapiens, UniProt Q16584); settings: 1 µM; 100% no effect, 0% complete tracer displacement
T12 construct: Full-length kinase ORF (Promega, Madison, WI, USA) cloned in frame with a NanoLuc-vector was transfected into HEK293T cells; host or cells: HEK293T
Experimental: as §1, §2

MAP4K2 = biological target: T13, MAP4K2 (Homo sapiens, UniProt Q12851); settings: 100% no effect, 0% complete tracer displacement, read-out: Tracer bound
T13 construct: Full-length kinase ORF (Promega, Madison, WI, USA) cloned in frame with a NanoLuc-vector was transfected into HEK293T cells; host or cells: HEK293T
Experimental: as §1, §2

MAPK9 = biological target: T14, MAPK9 (Homo sapiens, UniProt P45984); settings: 1 µM; 100% no effect, 0% complete tracer displacement
T14 construct: Full-length kinase ORF (Promega, Madison, WI, USA) cloned in frame with a NanoLuc-vector was transfected into HEK293T cells; host or cells: HEK293T
Experimental: as §1, §2

MYLK3 = biological target: T15, MYLK3 (Homo sapiens, UniProt Q32MK0); settings: 100% no effect, 0% complete tracer displacement, read-out: Tracer bound
T15 construct: Full-length kinase ORF (Promega, Madison, WI, USA) cloned in frame with a NanoLuc-vector was transfected into HEK293T cells; host or cells: HEK293T
Experimental: as §1, §2

NEK1 = biological target: T16, NEK1 (Homo sapiens, UniProt Q96PY6); settings: 100% no effect, 0% complete tracer displacement, read-out: Tracer bound
T16 construct: Full-length kinase ORF (Promega, Madison, WI, USA) cloned in frame with a NanoLuc-vector was transfected into HEK293T cells; host or cells: HEK293T
Experimental: as §1, §2

NUAK1 = biological target: T17, NUAK1 (Homo sapiens, UniProt O60285); settings: 1 µM; 100% no effect, 0% complete tracer displacement
T17 construct: Full-length kinase ORF (Promega, Madison, WI, USA) cloned in frame with a NanoLuc-vector was transfected into HEK293T cells; host or cells: HEK293T
Experimental: as §1, §2

PLK4 = biological target: T18, PLK4 (Homo sapiens, UniProt O00444); settings: 100% no effect, 0% complete tracer displacement, read-out: Tracer bound
T18 construct: Full-length kinase ORF (Promega, Madison, WI, USA) cloned in frame with a NanoLuc-vector was transfected into HEK293T cells; host or cells: HEK293T
Experimental: as §1, §2

PRKAA2 = biological target: T19, PRKAA2 (Homo sapiens, UniProt P54646); settings: 100% no effect, 0% complete tracer displacement, read-out: Tracer bound
T19 construct: Full-length kinase ORF (Promega, Madison, WI, USA) cloned in frame with a NanoLuc-vector was transfected into HEK293T cells; host or cells: HEK293T
Experimental: as §1, §2

PRKCQ-PMA = biological target: T20, PRKCQ-PMA (Homo sapiens, UniProt Q04759); settings: 100% no effect, 0% complete tracer displacement, read-out: Tracer bound
T20 construct: Full-length kinase ORF (Promega, Madison, WI, USA) cloned in frame with a NanoLuc-vector was transfected into HEK293T cells; host or cells: HEK293T
Experimental: as §1, §2

PTK2 = biological target: T21, PTK2 (Homo sapiens, UniProt Q05397); settings: 100% no effect, 0% complete tracer displacement, read-out: Tracer bound
T21 construct: Full-length kinase ORF (Promega, Madison, WI, USA) cloned in frame with a NanoLuc-vector was transfected into HEK293T cells; host or cells: HEK293T
Experimental: as §1, §2

RIOK2 = biological target: T22, RIOK2 (Homo sapiens, UniProt Q9BVS4); settings: 100% no effect, 0% complete tracer displacement, read-out: Tracer bound
T22 construct: Full-length kinase ORF (Promega, Madison, WI, USA) cloned in frame with a NanoLuc-vector was transfected into HEK293T cells; host or cells: HEK293T
Experimental: as §1, §2

RPS6KA1 = biological target: T23, RPS6KA1 (Homo sapiens, UniProt Q15418); settings: 100% no effect, 0% complete tracer displacement, read-out: Tracer bound
T23 construct: Full-length kinase ORF (Promega, Madison, WI, USA) cloned in frame with a NanoLuc-vector was transfected into HEK293T cells; host or cells: HEK293T
Experimental: as §1, §2

SNRK = biological target: T24, SNRK (Homo sapiens, UniProt Q9NRH2); settings: 100% no effect, 0% complete tracer displacement, read-out: Tracer bound
T24 construct: Full-length kinase ORF (Promega, Madison, WI, USA) cloned in frame with a NanoLuc-vector was transfected into HEK293T cells; host or cells: HEK293T
Experimental: as §1, §2

SRMS = biological target: T25, SRMS (Homo sapiens, UniProt Q9H3Y6); settings: 100% no effect, 0% complete tracer displacement, read-out: Tracer bound
T25 construct: Full-length kinase ORF (Promega, Madison, WI, USA) cloned in frame with a NanoLuc-vector was transfected into HEK293T cells; host or cells: HEK293T
Experimental: as §1, §2

STK3 = biological target: T26, STK3 (Homo sapiens, UniProt Q13188); settings: 100% no effect, 0% complete tracer displacement, read-out: Tracer bound
T26 construct: Full-length kinase ORF (Promega, Madison, WI, USA) cloned in frame with a NanoLuc-vector was transfected into HEK293T cells; host or cells: HEK293T
Experimental: as §1, §2

STK38L = biological target: T27, STK38L (Homo sapiens, UniProt Q9Y2H1); settings: 100% no effect, 0% complete tracer displacement, read-out: Tracer bound
T27 construct: Full-length kinase ORF (Promega, Madison, WI, USA) cloned in frame with a NanoLuc-vector was transfected into HEK293T cells; host or cells: HEK293T
Experimental: as §1, §2

TBK1 = biological target: T28, TBK1 (Homo sapiens, UniProt Q9UHD2); settings: 100% no effect, 0% complete tracer displacement, read-out: Tracer bound
T28 construct: Full-length kinase ORF (Promega, Madison, WI, USA) cloned in frame with a NanoLuc-vector was transfected into HEK293T cells; host or cells: HEK293T
Experimental: as §1, §2

TRKA = biological target: T29, TRKA (Homo sapiens, UniProt P04629); settings: 100% no effect, 0% complete tracer displacement, read-out: Tracer bound
T29 construct: Full-length kinase ORF (Promega, Madison, WI, USA) cloned in frame with a NanoLuc-vector; host or cells: HEK293T
Experimental: as §1, §2

TYK2 = biological target: T30, TYK2 (Homo sapiens, UniProt P29597); settings: 1 µM; 100% no effect, 0% complete tracer displacement
T30 construct: Full-length kinase ORF (Promega, Madison, WI, USA) cloned in frame with a NanoLuc-vector; host or cells: HEK293T
Experimental: as §1, §2

T12 sequence (Q16584 whole entry): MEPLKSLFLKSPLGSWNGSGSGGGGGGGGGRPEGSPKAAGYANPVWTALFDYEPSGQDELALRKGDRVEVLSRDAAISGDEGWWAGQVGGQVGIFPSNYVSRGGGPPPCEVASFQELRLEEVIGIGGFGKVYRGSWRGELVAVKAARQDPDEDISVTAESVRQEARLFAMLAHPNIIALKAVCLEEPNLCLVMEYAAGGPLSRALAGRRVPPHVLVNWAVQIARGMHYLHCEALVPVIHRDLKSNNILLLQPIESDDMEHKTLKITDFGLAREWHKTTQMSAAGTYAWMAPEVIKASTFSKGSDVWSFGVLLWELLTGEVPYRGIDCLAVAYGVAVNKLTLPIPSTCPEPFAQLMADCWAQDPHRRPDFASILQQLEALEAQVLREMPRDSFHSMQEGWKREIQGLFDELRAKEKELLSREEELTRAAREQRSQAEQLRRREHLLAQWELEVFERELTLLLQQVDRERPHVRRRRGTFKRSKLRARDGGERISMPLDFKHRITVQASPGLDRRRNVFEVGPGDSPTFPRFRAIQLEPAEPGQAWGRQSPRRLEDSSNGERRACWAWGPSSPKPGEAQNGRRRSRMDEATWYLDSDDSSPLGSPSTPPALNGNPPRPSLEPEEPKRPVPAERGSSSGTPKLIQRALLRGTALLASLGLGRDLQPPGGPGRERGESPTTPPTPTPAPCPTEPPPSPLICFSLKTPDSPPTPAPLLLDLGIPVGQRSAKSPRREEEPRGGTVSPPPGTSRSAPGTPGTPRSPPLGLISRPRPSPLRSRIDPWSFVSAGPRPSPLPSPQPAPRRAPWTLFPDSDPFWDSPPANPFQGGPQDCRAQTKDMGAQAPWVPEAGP
T15 sequence (Q32MK0 whole entry): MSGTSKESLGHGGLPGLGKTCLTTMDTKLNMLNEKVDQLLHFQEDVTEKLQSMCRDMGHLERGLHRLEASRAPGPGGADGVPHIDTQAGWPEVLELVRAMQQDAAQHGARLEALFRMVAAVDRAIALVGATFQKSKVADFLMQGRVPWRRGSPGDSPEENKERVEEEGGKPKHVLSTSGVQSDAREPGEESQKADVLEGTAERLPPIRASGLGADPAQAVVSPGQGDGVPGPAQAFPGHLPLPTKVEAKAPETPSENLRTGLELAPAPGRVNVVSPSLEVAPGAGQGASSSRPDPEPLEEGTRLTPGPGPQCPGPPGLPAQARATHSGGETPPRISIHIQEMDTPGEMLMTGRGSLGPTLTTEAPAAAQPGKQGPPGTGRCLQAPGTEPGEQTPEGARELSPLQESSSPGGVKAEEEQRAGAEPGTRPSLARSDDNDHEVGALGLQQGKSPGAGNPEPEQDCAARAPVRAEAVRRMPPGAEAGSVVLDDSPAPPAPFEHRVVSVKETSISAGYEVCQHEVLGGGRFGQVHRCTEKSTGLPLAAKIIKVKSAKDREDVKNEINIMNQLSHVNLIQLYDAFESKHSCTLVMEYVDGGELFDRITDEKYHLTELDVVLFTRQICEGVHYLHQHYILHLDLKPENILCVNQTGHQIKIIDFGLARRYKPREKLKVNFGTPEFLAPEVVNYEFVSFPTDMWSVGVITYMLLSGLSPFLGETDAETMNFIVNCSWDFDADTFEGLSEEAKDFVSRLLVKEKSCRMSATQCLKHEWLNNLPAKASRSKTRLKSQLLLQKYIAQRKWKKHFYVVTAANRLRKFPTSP
T29 sequence (P04629 33-796): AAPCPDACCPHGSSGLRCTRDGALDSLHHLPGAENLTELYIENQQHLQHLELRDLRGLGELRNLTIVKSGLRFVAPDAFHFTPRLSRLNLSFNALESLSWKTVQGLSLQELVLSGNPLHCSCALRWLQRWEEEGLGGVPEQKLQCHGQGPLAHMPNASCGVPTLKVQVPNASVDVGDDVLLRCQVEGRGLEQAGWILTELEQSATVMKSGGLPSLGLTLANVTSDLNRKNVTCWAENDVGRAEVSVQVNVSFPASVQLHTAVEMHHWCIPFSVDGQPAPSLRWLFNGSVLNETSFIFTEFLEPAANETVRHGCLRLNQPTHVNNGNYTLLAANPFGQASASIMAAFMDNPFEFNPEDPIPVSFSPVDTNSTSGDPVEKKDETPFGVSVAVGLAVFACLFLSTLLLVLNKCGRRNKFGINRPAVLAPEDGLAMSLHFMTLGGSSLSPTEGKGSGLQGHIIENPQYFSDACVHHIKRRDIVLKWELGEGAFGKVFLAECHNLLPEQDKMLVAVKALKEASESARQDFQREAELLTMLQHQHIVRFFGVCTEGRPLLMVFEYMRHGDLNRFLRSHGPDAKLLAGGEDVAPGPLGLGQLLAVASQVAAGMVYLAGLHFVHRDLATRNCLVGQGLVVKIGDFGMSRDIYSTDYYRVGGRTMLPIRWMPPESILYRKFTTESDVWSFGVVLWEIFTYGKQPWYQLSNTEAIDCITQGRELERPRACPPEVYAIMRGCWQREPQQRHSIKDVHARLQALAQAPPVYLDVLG
T2 sequence (Q00526 whole entry): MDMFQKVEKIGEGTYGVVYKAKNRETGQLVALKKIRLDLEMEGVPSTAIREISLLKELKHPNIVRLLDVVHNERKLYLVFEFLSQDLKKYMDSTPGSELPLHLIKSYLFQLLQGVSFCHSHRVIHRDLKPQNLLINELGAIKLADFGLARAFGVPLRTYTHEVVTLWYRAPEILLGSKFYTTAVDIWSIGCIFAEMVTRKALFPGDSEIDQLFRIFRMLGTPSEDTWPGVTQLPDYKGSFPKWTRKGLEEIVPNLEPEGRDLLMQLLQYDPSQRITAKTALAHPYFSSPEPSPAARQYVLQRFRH
T2 sequence (P24864 whole entry partner): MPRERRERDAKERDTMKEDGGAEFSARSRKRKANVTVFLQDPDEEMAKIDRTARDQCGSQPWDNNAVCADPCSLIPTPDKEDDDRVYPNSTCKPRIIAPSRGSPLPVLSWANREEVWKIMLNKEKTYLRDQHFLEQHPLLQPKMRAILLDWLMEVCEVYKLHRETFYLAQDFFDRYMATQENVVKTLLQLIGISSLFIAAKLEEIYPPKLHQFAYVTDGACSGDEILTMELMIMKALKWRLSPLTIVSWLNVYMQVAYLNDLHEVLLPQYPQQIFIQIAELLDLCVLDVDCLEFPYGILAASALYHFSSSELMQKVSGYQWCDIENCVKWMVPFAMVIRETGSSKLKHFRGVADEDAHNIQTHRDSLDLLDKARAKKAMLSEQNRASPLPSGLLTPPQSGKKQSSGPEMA
T16 sequence (Q96PY6 whole entry): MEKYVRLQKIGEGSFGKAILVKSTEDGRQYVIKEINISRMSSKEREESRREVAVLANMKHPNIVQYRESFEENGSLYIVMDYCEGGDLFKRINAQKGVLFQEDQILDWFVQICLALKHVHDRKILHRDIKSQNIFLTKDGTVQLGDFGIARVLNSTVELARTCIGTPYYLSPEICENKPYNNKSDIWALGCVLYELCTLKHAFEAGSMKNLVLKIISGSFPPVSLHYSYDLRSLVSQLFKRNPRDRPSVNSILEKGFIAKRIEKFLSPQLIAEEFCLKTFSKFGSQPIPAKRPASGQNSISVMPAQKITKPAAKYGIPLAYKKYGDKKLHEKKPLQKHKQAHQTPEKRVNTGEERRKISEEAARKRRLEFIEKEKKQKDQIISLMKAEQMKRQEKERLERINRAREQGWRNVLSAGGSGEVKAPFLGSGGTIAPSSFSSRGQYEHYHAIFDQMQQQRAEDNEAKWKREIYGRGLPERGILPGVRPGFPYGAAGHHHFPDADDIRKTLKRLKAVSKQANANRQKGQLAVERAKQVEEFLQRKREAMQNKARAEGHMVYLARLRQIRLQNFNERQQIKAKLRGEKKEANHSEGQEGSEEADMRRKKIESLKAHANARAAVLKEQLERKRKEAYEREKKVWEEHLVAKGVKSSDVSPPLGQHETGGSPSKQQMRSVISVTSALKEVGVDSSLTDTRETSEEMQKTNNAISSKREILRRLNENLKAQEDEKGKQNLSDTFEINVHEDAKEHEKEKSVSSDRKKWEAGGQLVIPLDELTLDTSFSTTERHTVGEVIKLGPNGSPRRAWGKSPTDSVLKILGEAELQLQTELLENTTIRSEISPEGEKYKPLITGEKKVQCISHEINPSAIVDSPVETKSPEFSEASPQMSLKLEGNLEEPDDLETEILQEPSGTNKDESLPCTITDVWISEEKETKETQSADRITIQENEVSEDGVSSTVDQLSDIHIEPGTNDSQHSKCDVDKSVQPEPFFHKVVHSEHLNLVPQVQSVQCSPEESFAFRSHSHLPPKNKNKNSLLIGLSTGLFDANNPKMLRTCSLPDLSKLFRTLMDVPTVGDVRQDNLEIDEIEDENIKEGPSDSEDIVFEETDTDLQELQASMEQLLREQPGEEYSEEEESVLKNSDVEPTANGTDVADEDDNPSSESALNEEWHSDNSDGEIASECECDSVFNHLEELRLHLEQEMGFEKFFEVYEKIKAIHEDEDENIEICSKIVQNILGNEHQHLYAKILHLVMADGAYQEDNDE
T22 sequence (Q9BVS4 whole entry): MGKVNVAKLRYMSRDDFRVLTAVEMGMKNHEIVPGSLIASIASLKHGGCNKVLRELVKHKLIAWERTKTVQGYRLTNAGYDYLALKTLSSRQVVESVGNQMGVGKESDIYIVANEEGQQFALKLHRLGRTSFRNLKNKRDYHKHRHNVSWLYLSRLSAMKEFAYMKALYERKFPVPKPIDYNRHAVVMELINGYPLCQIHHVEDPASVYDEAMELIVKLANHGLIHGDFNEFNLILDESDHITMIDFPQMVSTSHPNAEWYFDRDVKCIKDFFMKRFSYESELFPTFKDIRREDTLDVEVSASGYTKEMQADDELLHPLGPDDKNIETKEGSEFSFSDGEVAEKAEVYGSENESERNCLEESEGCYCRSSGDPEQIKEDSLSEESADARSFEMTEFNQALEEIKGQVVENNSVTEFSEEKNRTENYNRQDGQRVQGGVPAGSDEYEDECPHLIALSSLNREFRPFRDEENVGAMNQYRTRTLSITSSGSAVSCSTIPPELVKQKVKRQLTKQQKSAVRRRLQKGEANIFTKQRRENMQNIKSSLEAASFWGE

CNC(=O)c1cc(Oc2ccc(NC(=O)Nc3cc(C(C)(C)C)on3)cc2)ccn1 [MA68, reference compound]
remaining activity at 1 µM (CDK20-CCNH): 93.3%
Tracer bound (CDK3-CCNE1): 81.0%
remaining activity at 1 µM (CDK4-CCND3): 29.7%
remaining activity at 1 µM (CDK5-CDK5R2): 86.1%
remaining activity at 1 µM (CHEK2): 119%
remaining activity at 1 µM (DCLK3): 113%
remaining activity at 1 µM (EPHA6): 23.6%
Tracer bound (IRAK4): 94.3%
Tracer bound (JAK2): 110.6%
remaining activity at 1 µM (JAK3): 111%
remaining activity at 1 µM (LIMK2): 88.5%
Tracer bound (MAP3K11): 109.2%
remaining activity at 1 µM (MAP4K2): 107%
Tracer bound (MAPK9): 94.9%
remaining activity at 1 µM (MYLK3): 119%
remaining activity at 1 µM (NEK1): 110%
Tracer bound (NUAK1): 120.0%
remaining activity at 1 µM (PLK4): 107%
remaining activity at 1 µM (PRKAA2): 109%
remaining activity at 1 µM (PRKCQ-PMA): 108%
remaining activity at 1 µM (PTK2): 118%
remaining activity at 1 µM (RIOK2): 109%
remaining activity at 1 µM (RPS6KA1): 108%
remaining activity at 1 µM (SNRK): 99.2%
remaining activity at 1 µM (SRMS): 94.4%
remaining activity at 1 µM (STK3): 99.3%
remaining activity at 1 µM (STK38L): 90%
remaining activity at 1 µM (TBK1): 107%
remaining activity at 1 µM (TRKA): 28.6%
Tracer bound (TYK2): 103.2%
